Results: patent US20220024963A1, “SALT OF TRIPHOSPHATE PHOSPHORAMIDATES OF NUCLEOTIDES AS ANTICANCER COMPOUNDS” (priority 2019, published 2022)
Where a name gives a salt, the structure may show the parent alone. Read-outs that look alike come from different tables or passages of the source.

Legend:
HL60 (AML) = test: Cytotoxicity assay (AlamarBlue - resazurin dye), 72 h (Example B); type: cell-based
Description: (§1) The efficacy (evaluated by IC50) of clofarabine and 3 different compounds representing different class of clofarabine ProTides (monophosphate, diphosphate and triphosphate molecules) was compared.
(§2) The tested cancer cell lines were acute lymphoblastic leukaemia (ALL), acute myeloid leukaemia (AML) and lymphoma: CCRF-CEM (ALL), HL60 (AML), KG1 (AML), OCI-AML3 (AML) and RL (lymphoma), grown in suspension, in RPMI-1640 media, supplemented with 10% FBS serum and 1% pen strep, except for KG1 cell line for which FBS was 20%.
(§3) For all experiments, cells were plated on a 96 well plate, at a density of 10,000 cells/well in 50 μL media. Dilutions from stock concentration to working solutions were prepared in media; at twice the required concentration and 50 μL was added per well (this achieving the final concentrations described in results below). Control untreated received 50 μL of plain media. After 66 h 10 μL of resazurin was added per well (dilution 1:10). Cells were then incubated with for up to 6 h. After 72 h treatment, cytotoxicity assay (AlamarBlue™−resazurin dye) was performed to determine cell survival. Plates were scanned with a BioHit800 plate reader and data were analysed with Excel and GraphPad Prism.
(§4) A low IC50 indicates greater potency under these laboratory conditions.

KG1 (AML) = test: as above; type: cell-based; settings: KG1, 72 h treatment
Description: as §1, §2, §3, §4

RL (lymphoma) = test: as above; type: cell-based; settings: 72 h treatment
Description: as §1, §2, §3, §4

RPMI-8226 = test: In vitro viability assay, CellTiterGlo, 72 h (Example A); type: cell-based, Human; settings: RPMI-8226, CellTiterGlo; for EC50: read-out: Ab EC50
Experimental: (§5) A compound of the invention was assayed for cytotoxic activity in an array of different solid tumours and haematological malignancies using the following assay.
(§6) In vitro viability assay was performed to assess the effects of compounds on cell viability in selected cell lines over 72 h using the CellTiterGlo (CTG, Promega-G7573) assay. The tests were performed in duplicates with treatment of compounds at 9 points, 3.16 folds titration in 96 well plates over ˜72 h. The compound starting concentrations were 198 μM. Cell viability assay using CellTiterGlo in 96-well plate were performed. Compound treatment 72 h, standard growth conditions, duplicates. Compounds were dissolved to 40 mM with thawed […]. Compounds were serially diluted at 3.16 fold in thawed DMSO and warmed to 37° C. before being dissolved in media (2 μL+200 μL). After compounds were dissolved in media, media containing compounds were warmed to 37° C. in incubator and then compounds in media were added to cell plates (50 μL+50 μL) in duplicates. The compounds' final concentrations were from 198 μM to 19.8 nM. All compound solubilities were checked and recorded again, then the plates were transferred to CO2 tissue culture incubator immediately and incubated for 3 days. DMSO final concentration is 0.5%.

OCI-AML3 (AML) = test: cells; type: cell-based; settings: for Survival @ 50 nM: OCI-AML3, 50 nM; for Survival @ 50 nM / Survival @ 125 nM: percentage of cell survival, 72 h; for Survival @ 125 nM: OCI-AML3, 125 nM; for IC50: OCI-AML3, 72 h treatment, AlamarBlue
Description: as §1, §2, §3, §4
(§7) Clofarabine, A, 5a, 5b, 5c, 5d, 5e and 5f were tested against CCRF-CEM and OCI-AML3 cells. Data is represented as the percentage ofcell survival for each ofthe different concentrations to which cells were exposed, rather than calculating a formal IC50 from only two or three datapoints.

CCRF-CEM (ALL) = test: cells; type: cell-based; settings: for Survival @ 25 nM / Survival @ 50 nM / Survival @ 125 nM: percentage of cell survival, 72 h; for IC50: 72 h treatment, AlamarBlue
Description: as §1, §2, §3, §4, §7

HL-60 = test: In vitro viability assay, CellTiterGlo, 72 h (Example A); type: cell-based; settings: HL-60, CellTiterGlo; for EC50: read-out: Ab EC50
Experimental: as §5, §6

HT29 = test: as above; type: cell-based
Experimental: as §5, §6

CCRF-CEM = test: as above; type: cell-based; settings: for EC50: read-out: Ab EC50
Experimental: as §5, §6

K562 = test: as above; type: cell-based; settings: for EC50: read-out: Ab EC50
Experimental: as §5, §6

MOLT-4 = test: as above; type: cell-based; settings: MOLT-4, CellTiterGlo; for EC50: read-out: Ab EC50
Experimental: as §5, §6

HepG2 = test: as above; type: cell-based; settings: for EC50: read-out: Ab EC50
Experimental: as §5, §6

RL = test: as above; type: cell-based; settings: for EC50: read-out: Ab EC50
Experimental: as §5, §6

KG-1 = test: as above; type: cell-based; settings: KG-1, CellTiterGlo; for EC50: read-out: Ab EC50
Experimental: as §5, §6

[1] = system: CCRF-CEM and OCI-AML3 cells; type: cell-based; settings: both cell lines
Experimental: as §3, §7

MCF-7 = test: In vitro viability assay, CellTiterGlo, 72 h (Example A); type: cell-based
Experimental: as §5, §6

[2] = Homo sapiens, HL-60, HL60, 72 h treatment
[3] = Homo sapiens, HT-29, read-out: Ab EC50

Row | Molecule | IC50 (KG1 (AML)) [nM] | IC50 (RL (lymphoma)) [nM] | Top Inhibit (RPMI-8226) [%] | Survival @ 50 nM (OCI-AML3 (AML)) [%] | Survival @ 125 nM (OCI-AML3 (AML)) [%] | Survival @ 25 nM (CCRF-CEM (ALL)) [%] | Survival @ 50 nM (CCRF-CEM (ALL)) [%] | Survival @ 125 nM (CCRF-CEM (ALL)) [%] | Top Inhibit (HL-60) [%] | Top Inhibit (HT29) [%] | Top Inhibit (CCRF-CEM) [%] | Top Inhibit (K562) [%] | Top Inhibit (MOLT-4) [%] | Top Inhibit (HepG2) [%] | Top Inhibit (RL) [%] | Top Inhibit (KG-1) [%] | efficacy compared to A and clofarabine [1] | IC50 (HL60 (AML); [2]) [nM] | IC50 (OCI-AML3 (AML); Homo sapiens, OCI-AML-3) [nM] | IC50 (CCRF-CEM (ALL); Homo sapiens) [nM] | further results
1 | Clofarabine | 244 | 114 | 80 | 47 | 19 | 36 | 17 | 13 | 97 | 68 | 99 | 32 | 94 | 57 | 61 | 93 |  |  |  |  | IC50 (HL60 (AML); HL60, 72 h treatment): 41.5 nM; EC50 (RPMI-8226): 27600 nM; IC50 (OCI-AML3 (AML)): 74 nM; IC50 (CCRF-CEM (ALL)): 40.5 nM; EC50 (HL-60): 40 nM; EC50 (HT29; read-out: Ab EC50): 260 nM; EC50 (CCRF-CEM): < 20 nM; EC50 (K562): > 198000 nM; EC50 (MOLT-4): < 20 nM; EC50 (HepG2): 1090 nM; EC50 (RL): 310 nM; EC50 (KG-1): 70 nM
2 | (2S)-Methyl 2-(((((((((2R,3R,4S,5R)-5-(6-amino-2-chloro-9H-purin-9-yl)-4-fluoro-3-hydroxytetrahydrofuran-2-yl)methoxy)(hydroxy)phosphoryl)oxy)(hydroxy)phosphoryl)oxy)(phenoxy)phosphoryl)amino)-4-(methylthio)butanoate di-triethylammonium salt [Compound 5d] |  |  |  | 61 | 29 | 92 | 16 | 14 |  |  |  |  |  |  |  |  | superior efficacy |  |  |  | 
3 | (2S)-Cyclohexyl 2-(((((((((2R,3R,4S,5R)-5-(6-amino-2-chloro-9H-purin-9-yl)-4-fluoro-3-hydroxytetrahydrofuran-2-yl)methoxy)(hydroxy)phosphoryl)oxy)(hydroxy)phosphoryl)oxy)(phenoxy)phosphoryl)amino)-3-methylbutanoate di-triethylammonium salt [Compound 5e] |  |  |  | 100 | 95 | 99 | 75 | 90 |  |  |  |  |  |  |  |  |  |  |  |  | 
4 | (2S)-Isopropyl 2-(((((((((2R,3R,4S,5R)-5-(6-amino-2-chloro-9H-purin-9-yl)-4-fluoro-3-hydroxytetrahydrofuran-2-yl)methoxy)(hydroxy)phosphoryl)oxy)(hydroxy) phosphoryl)oxy)(phenoxy)phosphoryl)amino)propanoate di-triethylammonium salt [Compound 5c] |  |  |  | 99 | 61 | 93 | 94 | 14 |  |  |  |  |  |  |  |  |  |  |  |  | 
5 | C[C@H](NP(=O)(Oc1cccc2ccccc12)OP(=O)(O)OP(=O)(O)OC[C@H]1O[C@@H](n2cnc3c(N)nc(Cl)nc32)[C@@H](F)[C@@H]1O)C(=O)OCc1ccccc1 (stereo partly drawn) [Compound 5b, (2S)-Benzyl 2-(((((((((2R,3R,4S,5R)-5-(6-amino-2-chloro-9H-purin-9-yl)-4-fluoro-3-hydroxytetrahydrofuran-2-yl)methoxy)(hydroxy)phosphoryl)oxy)(hydroxy)phosphoryl)oxy)(naphthalen-1-yloxy)phosphoryl)amino)propanoate di-triethylammonium salt] |  |  |  | 64 | 24 | 36 | 18 | 13 |  |  |  |  |  |  |  |  | superior efficacy |  |  |  | 
6 | C[C@H](NP(=O)(Oc1ccccc1)OP(=O)(O)OC[C@H]1O[C@@H](n2cnc3c(N)nc(Cl)nc32)C(F)[C@H]1O)C(=O)OCc1ccccc1 (some centres unmarked) [B] | 267 | 153 |  |  |  |  |  |  |  |  |  |  |  |  |  |  |  | 71.9 | 121 | 82.5 | 
7 | C[C@H](NP(=O)(Oc1ccccc1)OP(=O)(O)OP(=O)(O)OC[C@H]1O[C@@H](n2cnc3c(N)nc(Cl)nc32)C(F)[C@H]1O)C(=O)OCc1ccccc1 (stereo partly drawn) [Compound 5a, (2S)-Benzyl 2-(((((((((2R,3R,4S,5R)-5-(6-amino-2-chloro-9H-purin-9-yl)-4-fluoro-3-hydroxytetrahydrofuran-2-yl)methoxy)(hydroxy)phosphoryl)oxy) (hydroxy)phosphoryl)oxy)(phenoxy)phosphoryl)amino)propanoate, di-triethylammonium salt] | 349 | 117 | 94 | 86 | 51 | 81 | 100 | 13 | 97 | 64 | 99 | 33 | 86 | 51 | 57 | 92 |  | 56.2 | 114 | 79 | EC50 (RPMI-8226; Homo sapiens): 20200 nM; EC50 (HL-60; Homo sapiens): 330 nM; EC50 (HT29; [3]): 500 nM; EC50 (CCRF-CEM; Homo sapiens): < 20 nM; EC50 (K562; Homo sapiens): > 198000 nM; EC50 (MCF-7; Homo sapiens, MCF7, MCF-7, CellTiterGlo, read-out: Ab EC50): > 198000 nM; Top Inhibit (MCF-7; MCF-7, CellTiterGlo): 40%; EC50 (MOLT-4; Homo sapiens): 40 nM; EC50 (HepG2; Homo sapiens): 620 nM; EC50 (RL; Homo sapiens): 44600 nM; EC50 (KG-1; Homo sapiens): 310 nM
8 | C[C@H](NP(=O)(OC[C@H]1O[C@@H](n2cnc3c(N)nc(Cl)nc32)C(F)[C@H]1O)Oc1ccccc1)C(=O)OCc1ccccc1 (some centres unmarked) [A] | 1760 | 399 | 83 | 99 | 96 | 96 | 100 | 100 | 95 | 86 | 99 | 85 | 100 | 99 | 90 | 93 |  | 91 | 253 | 275 | EC50 (RPMI-8226; Homo sapiens): 9200 nM; EC50 (HL-60; Homo sapiens): 220 nM; EC50 (HT29; [3]): 1730 nM; EC50 (CCRF-CEM; Homo sapiens): 80 nM; EC50 (K562; Homo sapiens): 27300 nM; EC50 (MOLT-4; Homo sapiens): 250 nM; EC50 (HepG2; Homo sapiens): 7630 nM; EC50 (RL; Homo sapiens): 4260 nM; EC50 (KG-1; Homo sapiens): 440 nM
9 | (2S)-Neopentyl 2-(((((((((2R,3R,4S,5R)-5-(6-amino-2-chloro-9H-purin-9-yl)-4-fluoro-3-hydroxytetrahydrofuran-2-yl)methoxy)(hydroxy)phosphoryl)oxy)(hydroxy)phosphoryl)oxy)(phenoxy)phosphoryl)amino)-3-phenylpropanoate di-triethylammonium salt [Compound 5f] |  |  |  | 57 | 32 | 85 | 16 | 14 |  |  |  |  |  |  |  |  | superior efficacy |  |  |  | 
